Columns and labels:
[1] = system: B- and Q-biotypes of B. tabaci; assay: Thiamethoxam cotton leaf-dip exposure, mortality; type: in vivo, Bemisia tabaci
Method: (§1) Thiamethoxam is one major neonicotinoid insecticide, known to act on the nicotinic acetylcholine receptors (nAChR) within the insect central nervous system. To expose B. tabaci to the neonicotinoid insecticide thiamethoxam (25% WG, Syngenta, China), we chose the cotton leaf-dip method. One week<-old adult forms from the laboratory colonies of B- and Q-biotypes of B. tabaci were collected separately and exposed in the laboratory conditions (26°C temperature, 60% humidity, 16/8 h day/night) to 0, 6.25, 12.5, 25 and 50 μg/ml of thiamethoxam, respectively. Significant mortality rate was observed only for higher doses […] at different exposure time.
(§2) The experiment started (time 0) when insecticide treated and non-treated plant discs (2.5 cm diameter) were individually placed on agar base in 20-ml glass vials.Twenty-eight whiteflies belonging either to B or Q-biotype were aspirated into each vial. Vials were capped with an absorbent cotton stopper and inverted. Insecticide-treated whiteflies fed in treated vials on cotton plant leaf discs dipped for 10 s in formulated thiamethoxam diluted with distilled water. Whiteflies kept in vials containing cotton plant leaf discs of the same diameter dipped for 10 s in distilled water only were used as controls (0 μg/ml of thiamethoxam). […]

[2] = system: B. tabaci B-biotype adults; assay: Thiamethoxam cotton leaf-dip exposure, gene expression by qRT-PCR, biotype B; type: in vivo, Bemisia tabaci
Method: (§3) One-step Reverse transcriptase PCR (TAKARA Bio. Inc) was used to check for tissue-distribution of CSP1 following the method described in Liu et al.. qRT-PCR was used to measure the changes of CSP1, CSP2 and CSP3 gene expression during development and over insecticide exposure. In a typical qRT-PCR experiment, cDNA templates (20 ng/μl) were used in a total volume of 20 μl containing SYBR Green I PCR Master Mix (Roche) and 200 nM of each primer, using 96-well optical-grade PCR plates and matched optical-grade membrane of StepOne Plus ABI system. qPCR primers were specifically designed to generate an amplicon of about 100–150 bps:
(§4) qRT-PCR products were sequenced to attest primer specificity. Each sample in B and Q was analyzed in triplicates. Three biological samples were used for each time point at each developmental stage and in the experiments on the effects of insecticide on the expression of CSP genes (see below). Reactions were run in a StepOne Plus system with initial denaturing step consisting of 2 min at 50°C and 10 min at 95°C, followed by 40 cycles of 15 s at 95°C-30 s at 60°C and terminated by a dissociation curve program from 60 to 95°C with a heating rate of 0.1°C and a continuous fluorescence acquisition. Expression levels were determined using the relative 2(-Delta Delta C(T)) method. Data were statistically analyzed by one-way Anova in SPSS.
as §1, §2

[3] = system: B. tabaci Q-biotype adults; assay: Thiamethoxam cotton leaf-dip exposure, gene expression by qRT-PCR, biotype Q; type: in vivo, Bemisia tabaci
Method: as §3, §4, §1
The experiment started (time 0) when insecticide treated and non-treated plant discs (2.5 cm diameter) were individually placed on agar base in 20-ml glass vials.Twenty-eight whiteflies belonging either to B or Q-biotype were aspirated into each vial. Vials were capped with an absorbent cotton stopper and inverted. Insecticide-treated whiteflies fed in treated vials on cotton plant leaf discs dipped for 10 s in formulated thiamethoxam diluted with distilled water. Whiteflies kept in vials containing cotton plant leaf discs of the same diameter dipped for 10 s in distilled water only were used as controls (0 μg/ml of thiamethoxam). After 1, 4, 24, 48 and 72 h post-exposure, all individuals in each category were collected in an eppendorf tube in treated and untreated groups of whiteflies in each of the two biotypes, kept on ice for 10 min and freeze-dried in nitrogen before storage at -70°C.

[4] = target: T1, BtabCSP1 (Bemisia tabaci, UniProt D6N3A3); assay: biochemical; type: binding
T1 sequence (D6N3A3 20-126): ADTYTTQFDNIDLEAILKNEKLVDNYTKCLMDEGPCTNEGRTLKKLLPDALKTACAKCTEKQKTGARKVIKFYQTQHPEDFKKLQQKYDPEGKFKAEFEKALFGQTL
Method: Protein-ligand binding affinity was determined for the three recombinant proteins. Emission fluorescence spectra were recorded on a Jasco FP-6500 Series fluorescence spectrofluorometer. […] Fluorescence was measured using an exciting wavelength of 337 nm. Emission spectrum was recorded between 350 and 500 nm.

## CN1COCN(Cc2cnc(Cl)s2)/C1=N\[N+](=O)[O-] [Thiamethoxam]
[1]; 100 μg/ml, 72 h exposure
  mortality: killed most of the whiteflies
[1]; different exposure time
  doses with significant mortality rate: > 100 µg/mL
[2]; 1-72 h, 0-50 μg/ml
  CSP1 expression, time/dose effect: did not observe such a time/dose effect
  CSP2 and CSP3 expression: no time/dose effect
[2]; 1 and 4 h, all five doses
  CSP1 gene expression: no changes
[2]; sublethal dose
  CYP6CX1 expression: reduced
[3]; 1-72 h, 0-50 μg/ml
  CSP2 and CSP3 expression: no time/dose effect
[3]; 1 and 4 h, all five doses
  CSP1 gene expression: no changes
[3]; 24 h, gradual concentrations
  CSP1 gene expression: gradual increase
[3]; 48 h
  CSP1 gene expression: No effects
[3]; 72 h exposure, 12.5 and 50 μg/ml
  increase in CSP1 gene expression (factor): 10–25
[3]; sublethal dose
  CYP6CM1 expression: increased
[3]; sublethal doses, 24 and 72 h
  CSP1 expression up-regulated: 10–20 fold
[4]
  IC50: > 50 µM

Reference: PMC4864240, “Biotype Characterization, Developmental Profiling, Insecticide Response and Binding Property of Bemisia tabaci Chemosensory Proteins: Role of CSP in Insect Defense” (PLoS ONE, 2016)
